# In patent publication US12616680B2 (CONSEJO SUPERIOR DE INVESTIGACIONES CIENTÍFICAS (CSIC), priority 2019, dated 2026):
# System: R6/1 mice
# Settings: oral in drinking water from 3 weeks of age, open field at 13 weeks, rotarod at 18 weeks, biotin 10 mg/kg/day or thiamine 200 mg/kg/day, given separately, FIG. 6A-B
structure (smiles),measurement,value
Cc1ncc(C[n+]2csc(CCO)c2C)c(N)n1 [thiamine],"effect on hypoactivity (open field, distance covered) and motor coordination deficit (rotarod, time to fall)",only showed improving trends in some of the behavioural tests
